# Source: patent US20200216837A1, “DRUG-TARGET IDENTIFICATION BY RAPID SELECTION OF DRUG RESISTANCE MUTATIONS” (KATHOLIEKE UNIVERSITEIT LEUVEN, priority 2016, published 2020)
# Key:
# [1] = test system: HAP1 cells; assay: Cell viability assay of wild-type versus mutagenized drug-resistant cells; format: cell-based, human; settings: for Drug sensitivity of colonies after Cas9/sgRNA targeting of the resistance hot spot: HAP1 cells, sgRNAs at XPO1 C528, KIF11 D130/A133, ERCC3 S162/Y163, NHEJ repair, 4 drug concentrations for selection; for Drug sensitivity of parental cells with a major protein variant reinstalled by CRISPR/Cas9-mediated HDR: XPO1 C528S,E529V,Q530H,K531I, KIF11 L132del, ERCC3 V166_K167insL in native locus; for Drug sensitivity of HDR-edited cells carrying NAMPT mutations: NAMPT mutations reinstalled in native locus of parental cells by CRISPR-induced HDR; for Drug sensitivity of surviving colonies after tiling library transduction and drug selection: HAP1 Cas9 cells, FDA_target subpool B with bortezomib 14 days, or investigational library D with KPT-9274
# Description: Cells were transfected with the Neon Electroporation System after resuspension in Buffer R. DNA plasmids expressing the spCas9 or asCpf1 endonuclease and guiding RNA were added to a concentration of 37.5 ng/μL per plasmid and electroporated at 1,400-1,475V with 3 pulses of 10 ms. Two to three days after transfection, cells were treated with the respective drug to select for resistance over 7-14 days. Colonies were imaged with an IncuCyte© ZOOM (Essen Bioscience).
# For HDR, a 123-134 bases long ssDNA oligonucleotide (850 ng) was added to the electroporation mixture in addition to the respective sgRNA and spCas9 expressing plasmids. Two days after electroporation, cells were treated with respective drugs for 5 days before imaging with an IncuCyte© ZOOM (Essen Bioscience). Following imaging, the HDR-template transfected cells were grown under drug selection for an additional week before any further experiments were performed.
# Cell viability assays were performed by plating 3,000 HAP1, 5,000 HCT 116 or HL-60 cells in 96-well plates containing DMSO or a dilution of the test compound. Cells were incubated for 72 hours at 37° C. and 5% CO2. Cell viability was then assessed with the CellTiter 96® AQueous Non-Radioactive Cell Proliferation Assay (Promega) and colorimetric signals were measured with a Safire2™ (TECAN). Assays were performed in triplicate and each experiment was repeated at least once. Obtained values were adjusted with the background signal and divided by the DMSO control. Relative data values were then visualized and analyzed using a log-based 4 parameter model (GraphPad Prism).
# For single guide drug resistance validation assays, 125.000 cells were transfected with Cas9 and the individual sgRNAs using the Neon Electroporation system as described above and plated into 6-well plates. Cells were treated 2-3 days after transfection with the respective compound for a period of 5-7 days, the medium was regularly refreshed and dead cells were washed away before imaging confluency using a live cell analysis system (Essen Bioscience, IncuCyte ZOOM®).
# [2] = test system: HAP1 cells stably expressing spCas9 or asCpf1; assay: CRISPR mutagenesis scanning drug-target identification screen with tiling sgRNA/crRNA libraries; format: cell-based, human; settings: 30 nM bortezomib, 300 nM KPT-9274 or 2 μM selinexor for 2 weeks
# Description: FastQ files obtained after MiSeq sequencing were demultiplexed with the MiSeq Reporter software (Illumina). Demultiplexed and paired reads were trimmed, filtered and then aligned to the reference amplicon in Geneious (v9, Biomatters). To obtain haplotypes present in drug-resistant samples, bam files were analyzed with the CrispRVariants package run in RStudio by defining a 35-50 bp spanning region across the endonuclease cut site, as defined by pre-analysis of localized variants within Geneious. For this purpose, the CrispRVariants “readtotarget” input was run with parameters “upstream.snv” (30) and “downstream.snv” (15) on corresponding paired end sequencing reads to allow for haplotype determination. Haplotype nucleotide sequences were extracted with a small script. Nucleotide sequences were then visualized and mapped to the reference in Geneious v9 (Biomatters) and amino acid variants were determined. For visualization of the spectra of single nucleotide variants, NGS reads were aligned to the reference gene. Nucleotide occurrence frequencies were then determined in R on the aligned NGS reads using the deep SNV Bioconductor package. Sequences containing sgRNA/crRNAs from the lentiviral screens were trimmed from adapter sequences. Individual sgRNA/crRNA sequencing reads were then aligned to the pLCKO-U6-sgRNA vector within Geneious, counted with MaGeCK^18 and visualized in GraphPad Prism.
# HAP1 cells stably expressing spCas9 or asCpf1 were resuspended in supplemented IMDM containing 8 μg/mL polybrene and transduced with lentiviral particles containing the desired sgRNA/crRNAs at a MOI of 0.25 (coverage of 5,000× per sgRNA for spCas9) or 0.35 (coverage of 15,000× per crRNA for asCpf1) by spinfection in 12-well plates. The next day cells were transferred to T150 cell flasks and selected with 1 μg/mL puromycin. Then 4 million (ispinesib/selinexor) or 10 million (KPT-9274/bortezomib) cells were harvested for DNA extraction and the remaining cells were treated for a period of 2 weeks with 8 nM ispinesib, 30 nM bortezomib, 300 nM KPT-9274 or 2 μM selinexor. […]
Structure (SMILES),Drug sensitivity of colonies after Cas9/sgRNA targeting of the resistance hot spot [1],Drug sensitivity of parental cells with a major protein variant reinstalled by CRISPR/Cas9-mediated HDR [1],Drug sensitivity of HDR-edited cells carrying NAMPT mutations [1],"Drug sensitivity of the original KPT-9274 resistant cell pool ([1]; cell pool surviving the library D mutagenesis screen with KPT-9274, compared to wild-type)",Target gene identified by enriched guide RNAs and resistance mutations [2],Drug sensitivity of surviving colonies after tiling library transduction and drug selection [1],"Drug sensitivity of colonies after AsCpf1 tiling crRNA library and drug selection ([1]; HAP1 AsCpf1 cells, 10 genes, 1,100 crRNAs, selinexor 2 μM)"
CC(C)[C@]12O[C@H]1[C@@H]1O[C@]13[C@]1(O[C@H]1C[C@H]1C4=C(CC[C@@]13C)C(=O)OC4)[C@@H]2O [triptolide],resistant,resistant,–,–,–,–,–
Cc1ccc(C(=O)N(CCCN)[C@@H](c2nc3cc(Cl)ccc3c(=O)n2Cc2ccccc2)C(C)C)cc1 [ispinesib],resistant,resistant,–,–,–,–,–
O=C(/C=C/c1cccnc1)NCCCCC1CCN(C(=O)c2ccccc2)CC1 [FK866],–,–,cross-resistant,cross-resistant,–,–,–
Nc1ccc(/C=C/C(=O)NCc2cc3cc(-c4ccc(C(=O)N5CCC(F)(F)CC5)cc4)cc(-c4ccc(F)cc4)c3o2)cn1 [KPT-9274],–,–,resistant,–,NAMPT,resistant,–
CC(C)C[C@H](NC(=O)[C@H](Cc1ccccc1)NC(=O)c1cnccn1)B(O)O [bortezomib],–,–,–,–,PSMB5,resistant,–
O=C(/C=C\n1cnc(-c2cc(C(F)(F)F)cc(C(F)(F)F)c2)n1)NNc1cnccn1 [selinexor],resistant,resistant,–,–,XPO1,–,resistant
